Holding throughout (type): cell-based
Assay [1] addresses T1, recombinant GluR6 kainate receptors (Homo sapiens, UniProt Q13002).
T1 construct: expressed in transfected cells; host or cells: Xenopus laevis oocytes injected with in vitro transcribed GluR6 cRNA
As to the kind of experiment: Effects of steroids on recombinant GluR6 kainate receptors in oocytes. Particulars: recombinant GluR6, Vh about −100 mV, FIG. 11.
Description: All measurements were performed under Vh of about −100 mV.
About 3 days to about 5 days after RNA injection, electrophysiological recordings were carried out using an Axoclamp-2A voltage clamp amplifier (Axon Instruments, Inc.). Experiments were performed in two-electrode voltage clamp mode using two intracellular microelectrodes of about 1 to about 3 mega-ohm resistance filled with a solution of about 3M KCl.
Oocytes were usually clamped at a holding potential of about −60 mV and stepped to about −100 mV during agent application.

Assay [2] has as its system kainate responses in oocytes injected with rat brain poly A+ mRNA. As to the kind of experiment: Effect of pregnenolone sulfate on kainate dose-response curve in oocytes injected with rat brain poly A+ mRNA. Particulars: with and without pregnenolone sulfate, Vh about −100 mV, FIG. 9.
Description: Poly A^+ mRNA are extracted from brain tissue and neuronal cell culture using a magnetic separation protocol based on the Dynabeads Oligo (dT)25 kit (Dynal, Olso, Norway). Briefly, the protocol utilized magnetic beads that have an attached poly-T moiety which can bind poly A^+ mRNA for separation. Tissue is homogenized, cells are disrupted, and the lysate is added to an aliquot of Dynabeads. Magnetic separation efficiently yields mRNA that is suitable for direct injection into oocytes. Batches of about 20 to about 30 select oocytes are injected with about 50 to about 100 ng of neuronal poly A^+ mRNA. Alternatively, oocytes may be injected with about 30 μl to about 80 μl of RNA prepared from in vitro transcription of cDNA clones. In either case, injection may be performed using a Drummond electronic microinjector. Oocytes are then maintained at about 18° C. to about 19° C. for about 2 to about 4 days to allow protein expression prior to electrophysiological recordings. After incubation, electrophysiological analysis of expressed receptors and ion channels may be performed using a system according to the present invention.
About 3 days to about 5 days after RNA injection, electrophysiological recordings were carried out using an Axoclamp-2A voltage clamp amplifier (Axon Instruments, Inc.). […]
The test system of assay [3] is metabotropic glutamate receptors. As to the kind of experiment: Inhibition of kainate responses by stimulation of metabotropic glutamate receptors in oocytes injected with rat brain poly A+ mRNA. Particulars: about 500 μM tACPD, about 100 μM kainate, repetitive applications, FIG. 14. Here is the method:
Poly A^+ mRNA are extracted from brain tissue and neuronal cell culture using a magnetic separation protocol based on the Dynabeads Oligo (dT)25 kit (Dynal, Olso, Norway). Briefly, the protocol utilized magnetic beads that have an attached poly-T moiety which can bind poly A^+ mRNA for separation. Tissue is homogenized, cells are disrupted, and the lysate is added to an aliquot of Dynabeads. Magnetic separation efficiently yields mRNA that is suitable for direct injection into oocytes. Batches of about 20 to about 30 select oocytes are injected with about 50 to about 100 ng of neuronal poly A^+ mRNA. Alternatively, oocytes may be injected with about […] of RNA prepared from in vitro transcription of cDNA clones. In either case, injection may be performed using a Drummond electronic microinjector. Oocytes are then maintained at about 18° C. to about 19° C. for about 2 to about 4 days to allow protein expression prior to electrophysiological recordings. After incubation, electrophysiological analysis of expressed receptors and ion channels may be performed using a system according to the present invention.

Here are results for two molecules from US6762036B2, “Cellular physiology workstations for automated data acquisition and perfusion control” (Trustees of Boston University, priority 1995, dated 2004).

T1 sequence (Q13002 32-908): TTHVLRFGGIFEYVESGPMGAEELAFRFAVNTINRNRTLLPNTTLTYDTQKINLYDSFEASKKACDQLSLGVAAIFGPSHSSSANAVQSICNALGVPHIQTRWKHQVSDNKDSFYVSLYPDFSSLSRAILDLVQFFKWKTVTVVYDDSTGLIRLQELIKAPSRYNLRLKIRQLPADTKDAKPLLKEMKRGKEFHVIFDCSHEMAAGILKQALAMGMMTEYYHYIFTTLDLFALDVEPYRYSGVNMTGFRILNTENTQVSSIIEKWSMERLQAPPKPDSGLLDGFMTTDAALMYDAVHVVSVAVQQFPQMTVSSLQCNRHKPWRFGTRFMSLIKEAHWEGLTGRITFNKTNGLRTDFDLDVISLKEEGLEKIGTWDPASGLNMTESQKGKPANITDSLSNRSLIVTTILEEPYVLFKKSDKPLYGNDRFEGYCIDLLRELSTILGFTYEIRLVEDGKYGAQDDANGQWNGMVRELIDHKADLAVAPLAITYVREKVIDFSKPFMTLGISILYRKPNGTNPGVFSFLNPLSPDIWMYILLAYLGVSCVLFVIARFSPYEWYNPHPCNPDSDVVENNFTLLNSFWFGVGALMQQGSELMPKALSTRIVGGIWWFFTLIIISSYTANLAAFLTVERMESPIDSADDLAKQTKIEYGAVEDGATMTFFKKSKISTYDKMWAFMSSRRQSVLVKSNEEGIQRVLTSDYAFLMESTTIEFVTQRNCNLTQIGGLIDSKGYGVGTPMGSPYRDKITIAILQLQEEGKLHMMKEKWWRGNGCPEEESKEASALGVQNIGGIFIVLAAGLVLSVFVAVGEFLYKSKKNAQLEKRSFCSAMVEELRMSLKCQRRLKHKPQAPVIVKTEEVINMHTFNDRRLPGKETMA

Take pregnenolone sulfate: in assay [1], the “Effect on maximal response to kainate” value is on record as “decrease the maximal response to kainate”. Besides, the “Effect on Emax of kainate dose-response curve” value in assay [2] is on record as “decrease in Emax”. In the case of `N[C@]1(C(=O)O)CC[C@H](C(=O)O)C1` [tACPD], the “Effect on responses to kainate” value in assay [3] was “can inhibit responses to kainate”.
